Measurements reported in patent publication US20230202981A1, “NOVEL SMALL MOLECULES FOR TARGETED DEGRADATION OF UNTARGETABLE KRAS IN CANCER THERAPY” (Pillai Universal LLC, priority 2020, published 2023).
Read-outs that look alike come from different tables or passages of the source.

Columns and labels:
tumor xenograft = assay: Nude mouse xenograft models (EGFR/HER2 study); format: in vivo
Source text: (§1) The activity of Compound 1 on various mutated EGFRs, HER2, and HER4 were examined. MTT assays, flow cytometry, and Western blotting were used to examine the effects of Compound 1 on with different genetic characteristics and relevant molecular mechanisms. Nude mouse xenograft models with cells were used to evaluate the in vim anti-tumor activity of Compound 1. […] Compound 1 blocked EGFR phosphorylation, thereby down regulating downstream PI3/AKT and MAPK/ERK signaling pathways and inducing G0/G1 arrest in different cells. […] Due to compromised homologous recombination (HR) repair, BRCA 1-and BRCA 2-mutated tumours accumulate DNA damage and genomic rearrangements conducive of tumour progression.

[1] = system: miR-30c and miR-21 in mutant KRAS; assay: miR-30c and miR-21 and tumor suppressor gene expression (microarray analysis); format: cell-based
Source text: The effect of Compound 1 on the expression of miR 30c and miR-21 in mutant form of KRAS and Wild type was observed. […] Based on these observation our molecules targets miRNA in KRAS mutant model which acts as an attractive therapeutic tools in cancer medicine, because these miRNA that can silence multiple gene(s) and therefore switch off different pathways simultaneously, which is not possible with protein-based drugs and other covalent inhibitor of different KRAS mutant form, and eventually Compound 1 has no toxicity or off target effects compared to other standard drugs

Pharmacokinetics in rats = format: in vivo
[2] = system: CRAF, AKT and ERK phosphorylation in KRAS mutant cell lines; assay: Phosphorylation of KRAS downstream signaling pathway; format: cell-based; settings: 48 h, time-dependent
Procedure: Active KRAS stimulates downstream signaling pathways, especially for RAF/MEK/ERK and […] pathway, and then induces cell proliferation. Therefore, to investigate the effect of Compound 1, the phosphorylation levels of CRAF, AKT and ERK in cell lines was examined to monitor the impact of KRAS signaling by treatment with this compound for 48 h.

RAS = assay: Effect on RAS degradation (GSK3β, Wnt/β-catenin pathway proteins); format: cell-based
mitosis = assay: Cell cycle analysis of DNA content and phospho-histone H3B immunofluorescence; format: cell-based
Source text: (§2) The present invention is aimed to invent powerful, therapeutic small molecules that could target mutant KRAS on its active sites. Here we identified a small molecule, compound I, that binds the GTP/GDP-binding pocket of KRAS. For this purpose we studied a strong correlation of measurement among a larger panel of tumor cell lines expressing KRAS mutation and analyses the potency to inhibit the tumor cell growth activated RAS. […] Therefore, compound I may be considered as a potential KRAS inhibitor for treatment of cancer cells carrying KRAS oncogene.

[3] = system: KRAS G12C mutant cell lines; assay: Cytotoxic effect on NCI-Panel of 10 KRAS G12C mutant cell lines; format: cell-based
Oral bioavailability = format: in vivo
KRAS = KRAS (Homo sapiens, UniProt P01116); assay: Binding to KRAS in vitro
KRAS, sequence (P01116 1-188 isoform P01116-2): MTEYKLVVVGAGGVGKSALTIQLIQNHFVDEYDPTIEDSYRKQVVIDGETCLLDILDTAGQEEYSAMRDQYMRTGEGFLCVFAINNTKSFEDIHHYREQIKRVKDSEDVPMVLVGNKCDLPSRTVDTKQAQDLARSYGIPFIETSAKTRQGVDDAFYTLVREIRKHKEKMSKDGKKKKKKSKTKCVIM
Source text: as §2
From the above biological examples it is clearly inferred that the Compound 1 as a new class of KRAS that selectively targets the GTP/GDP binding pocket. […] Compound 1 to 5-induced hyperactivation of mutant KRAS facilitates apoptotic cell death in mutant KRAS cancer cells. Combining the results with detailed structural analysis, we are able to describe key ligand-receptor interactions that correlate with activity. Thus, showing that our screening techniques were very successful at generating KRAS binders that have effects on signaling in cells. […] Therefore, compound Compound 1 is a promising hit for the development of novel non-covalent KRAS inhibitors. The development of this new class of anticancer drug offers a potentially effective strategy for the treatment of cancer with KRAS mutation and/or mutant KRAS-driven cancer. […]

p53 = assay: Expression of p53 and apoptosis-related genes (qRT-PCR); format: cell-based; settings: cancer cells
Procedure: FIG. 11 depicts compound I Targeting p53 (mRNA levels of p53, Puma, and Noxa in cells at 6 hours after compound I treatment. mRNA levels were quantified by qRT-PCR. Data were normalized to GAPDH expression and plotted relative to cells treated with DMSO as control)

MDA-MB-453 = assay: IC50 of Compound 1 on breast cells (MTT assay); format: cell-based; settings: Homo sapiens; MDA-MB-453 cells
Source text: as §1

T-47D = assay: IC50 of Compound 1 on breast cells (MTT assay); format: cell-based; settings: Homo sapiens, T47D; T-47D cells
Source text: as §1

ZR-75-1 = assay: IC50 of Compound 1 on breast cells (MTT assay); format: cell-based; settings: Homo sapiens; ZR-75-1 cells
Source text: as §1

BT-549 = assay: IC50 of Compound 1 on breast cells (MTT assay); format: cell-based; settings: Homo sapiens; BT-549 cells
Source text: as §1

MDA-MB-231 = assay: IC50 of Compound 1 on breast cells (MTT assay); format: cell-based; settings: Homo sapiens; MDA-MB-231 cells
Source text: as §1

MCF-10A = assay: IC50 of Compound 1 on breast cells (MTT assay); format: cell-based; settings: Homo sapiens; MCF-10A cells
Source text: as §1

MDA-MB-468 = assay: IC50 of Compound 1 on breast cells (MTT assay); format: cell-based; settings: Homo sapiens; MDA-MB-468 cells
Source text: as §1

BT-474 = assay: IC50 of Compound 1 on breast cells (MTT assay); format: cell-based; settings: Homo sapiens; BT-474 cells
Source text: as §1

HCC1937 = assay: IC50 of Compound 1 on breast cells (MTT assay); format: cell-based; settings: Homo sapiens
Source text: as §1

wild-type (WT) KRAS = assay: RAS activation assay, GTP-KRAS in wild-type cells; format: cell-based
Source text: Actually, mutant KRAS would interfere the balance between GEFs and GAPs, resulting in locking in the active GTP-bound KRAS state and aberrant stimulation of its downstream signaling.
Significant increased expression of Immune cells has been observed in Compound 1 treatment.

Pharmacokinetics in mice = format: in vivo

Q: For CCCCc1ncc(C(=O)C2CC=C(C(N)=O)N2)cc1C(=O)OCC (stereo not shown) [Compound 1], which tumor growth (tumor xenograft) is on record?
A: Its tumor growth is “inhibited tumor growth”.

Q: And the miR21 expression ([1]; control 0.72 ± 0.02)?
A: The miR21 expression was 1.58 ± 0.32.

Q: What about the miR30c expression ([1]; control 0.96 ± 0.025) of the same compound?
A: The miR30c expression was 1.89 ± 0.25.

Q: What about the NF1 expression ([1]; control 1.56 ± 0.06) of the same compound?
A: The NF1 expression was 1.21 ± 0.033.

Q: And the BID expression ([1]; control 1.56 ± 0.36)?
A: Its BID expression is 0.32 ± 0.012.

Q: And the RASA1 expression ([1]; control 1.69 ± 0.36)?
A: Its RASA1 expression is 0.32 ± 0.031.

Q: What about the “expression of miR 30c and miR-21” value ([1]; mutant form of KRAS, microarray analysis) of the same compound?
A: Its value is “significantly reduced”.

Q: What about the Cmax (Pharmacokinetics in rats; rat, 10 mg/kg b.wt) of the same compound?
A: The Cmax was “Cmax = 1.9 μg/mL (10 mg/kg b.wt rat)”.

Q: And the T1/2 (Pharmacokinetics in rats; rats)?
A: Its T1/2 is “T1/2 = 9.8 h (rats)”.

Q: What about the T max (Pharmacokinetics in rats; rats, 10 mg/kg b.wt) of the same compound?
A: The T max was “T max = 2 h (rats, 10 mg/kg, b.wt; )”.

Q: What about the “levels of phosphorylation of CRAF and AKT” value [2] of the same compound?
A: Its value is “reduced the levels of phosphorylation”.

Q: What about the Axin level (RAS; control 0.25 ± 0.05) of the same compound?
A: Its Axin level is 1.96 ± 0.02.

Q: What about the APC level (RAS; control 0.63 ± 0.03) of the same compound?
A: Its APC level is 0.96 ± 0.44.

Q: What about the GSk3β level (RAS; control 0.69 ± 0.02) of the same compound?
A: Its GSk3β level is 1.89 ± 0.23.

Q: What about the “Beta Catenin level” value (RAS; control 1.32 ± 0.09) of the same compound?
A: The value was 0.66 ± 0.09.

Q: What about the RAS level (RAS; control 1.96 ± 0.06) of the same compound?
A: The RAS level was 0.25 ± 0.03.

Q: What about the RAS degradation (RAS; via GSK3β phosphorylation) of the same compound?
A: Its RAS degradation is “degrades the RAS”.

Q: And the mitotic arrest (mitosis)?
A: Its mitotic arrest is “induced mitotic arrest”.

Q: And the “number of cancer cells compared against AMG510 and MRTX849” value [3]?
A: The value was “significant reduction in the number of cancer cells”.

Q: And the “F (Bioavailability)” value (Oral bioavailability)?
A: Its value is “F-92% (Bioavailability)”.

Q: And the “binding affinity to KRAS” value (KRAS)?
A: Its value is “nanomolar binder”.

Q: And the “binding affinity to KRAS” value (KRAS; listed as Compound I)?
A: The value was “good binding affinity”.

Q: And the “expression of p53” value (p53)?
A: The value was “upregulating the expression of p53”.

Q: And the IC50 (MDA-MB-453)?
A: The IC50 was 3.65 ± 0.44 µM.

Q: And the IC50 (T-47D)?
A: The IC50 was 5.19 ± 0.28 µM.

Q: And the IC50 (ZR-75-1)?
A: Its IC50 is 1.69 ± 0.14 µM.

Q: What about the IC50 (BT-549) of the same compound?
A: The IC50 was 3.24 ± 0.08 µM.

Q: What about the IC50 (MDA-MB-231) of the same compound?
A: Its IC50 is 4.89 ± 0.37 µM.

Q: What about the IC50 (MCF-10A) of the same compound?
A: The IC50 was 106 ± 3.14 µM.

Q: What about the IC50 (MDA-MB-468) of the same compound?
A: Its IC50 is 4.21 ± 0.3 µM.

Q: What about the IC50 (BT-474) of the same compound?
A: The IC50 was 4.45 ± 0.1 µM.

Q: What about the IC50 (HCC1937) of the same compound?
A: The IC50 was 7.52 ± 1.26 µM.

Q: What about the “GTP binding affinity in wild type KRAS” value (wild-type (WT) KRAS; wild type KRAS) of the same compound?
A: The value was “no effect on GTP binding affinity”.

Q: What about the “effect on GTP-KRAS in cells with wild-type KRAS” value (wild-type (WT) KRAS; wild-type (WT) KRAS cells) of the same compound?
A: Its value is “no effect was observed”.

Q: What about the T1/2 (Pharmacokinetics in mice) of the same compound?
A: The T1/2 was “T1/2 = 5.8 h (mice)”.

Q: And the Cmax (Pharmacokinetics in mice; 10 mg/kg b.wt.)?
A: The Cmax was “Cmax = 2.6 μg/mL (10 mg/kg b.wt. mice)”.

Q: What about the T max (Pharmacokinetics in mice; 10 mg/kg b.wt.) of the same compound?
A: Its T max is “T max = 2 h (mice 10 mg/kg, b.wt;)”.
